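Grown in 96-well plates, cells were treated for 48 hours with each compound at five concentrations. Insufficient inhibition: endpoint recorded as highest concentration tested. GI50 is the concentration that inhibits growth by half.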 Activity calls are given as the source filed them. Rule as the data show it: active = GI50 up to about 1.1 µM and inactive = higher.
What was measured:
Test in all cases: NCI tumour cell line growth inhibition, 48 h
[1] = system: SF-268
[2] = system: NCI-H226
[3] = system: EKVX
[4] = system: HT-29
[5] = system: M14
[6] = system: NCI-H460
[7] = system: SNB-75
[8] = system: SW-620
[9] = system: UO-31
[10] = system: NCI-H23
[11] = system: HCT-116
[12] = system: PC-3
[13] = system: LOX IMVI
[14] = system: BT-549
[15] = system: UACC-62
[16] = system: A549
[17] = system: SK-MEL-2
[18] = system: U-251
[19] = system: HL-60
[20] = system: MDA-MB-231

Measured: GI50

Nc1nn2c(=O)c3ccccc3nc2s1
inactive: [1] 38.8 µM | [2] 23.9 µM | [3] > 100 µM | [4] 41.2 µM | [5] 28.6 µM | [6] > 100 µM | [7] > 100 µM | [8] 19.2 µM | [9] 28.2 µM | [10] 28.4 µM | [11] 57.3 µM | [12] > 100 µM | [13] 17.5 µM | [14] 22.6 µM | [15] > 100 µM | [16] > 100 µM | [17] > 100 µM | [18] > 100 µM

COc1ccc(-c2c3c(n(C4OC(COC(C)=O)C(OC(C)=O)C(OC(C)=O)C4OC(C)=O)c(=S)c2C#N)CCC3)cc1 (centres undefined)
inactive: [1] > 100 µM | [4] > 100 µM | [19] > 100 µM | [5] > 100 µM | [6] > 100 µM | [7] > 100 µM | [8] > 100 µM | [9] 81.3 µM | [10] > 100 µM | [11] > 100 µM | [12] > 100 µM | [13] > 100 µM | [14] 96.4 µM | [15] > 100 µM | [16] > 100 µM | [17] > 100 µM | [18] > 100 µM

CCc1cc2c(oc3c4ccccc4ccc23)c(=O)[nH]1
inactive: [1] > 10 µM | [2] > 10 µM | [3] > 10 µM | [4] > 10 µM | [19] > 10 µM | [5] > 10 µM | [6] > 10 µM | [7] > 10 µM | [8] > 10 µM | [9] > 10 µM | [10] > 10 µM | [11] > 10 µM | [12] > 10 µM | [13] > 10 µM | [14] > 10 µM | [15] > 10 µM | [16] > 10 µM | [18] > 10 µM

NC(CSc1nc2ccccn2c1[N+](=O)[O-])C(=O)O (centres undefined)
inactive: [1] > 100 µM | [2] > 100 µM | [3] > 100 µM | [4] > 100 µM | [5] > 100 µM | [6] > 100 µM | [7] > 100 µM | [8] > 100 µM | [9] 2.49 µM | [20] > 100 µM | [10] > 100 µM | [11] > 100 µM | [12] > 100 µM | [14] > 100 µM | [15] > 100 µM | [16] > 100 µM | [17] > 100 µM | [18] > 100 µM

CC(C)CCC[C@@H](C)[C@H]1CC[C@H]2[C@@H]3CC[C@H]4C[C@H](N)CC[C@]4(C)[C@H]3CC[C@]12C
inactive: [1] 26 µM | [2] 17.3 µM | [3] 17.7 µM | [4] 18.3 µM | [19] 3.34 µM | [5] 13.8 µM | [6] 22 µM | [7] 18.5 µM | [8] 31.6 µM | [9] 13.5 µM | [20] 2.84 µM | [10] 26.1 µM | [11] 30.1 µM | [12] 5.87 µM | [13] 21.3 µM | [14] 23.1 µM | [15] 19.2 µM | [16] 16.9 µM | [18] 13.8 µM

Cc1ccc(/N=C2\SC(=S)N(CCC[N+](C)(C)C)\C2=N/c2ccc(C)cc2)cc1
inactive: [2] 21.7 µM | [3] 17 µM | [4] 14.8 µM | [19] 1.99 µM | [5] 21.1 µM | [6] 18.1 µM | [7] 2.94 µM | [8] 20.7 µM | [9] 18.5 µM | [20] 14.3 µM | [10] 14.5 µM | [11] 11 µM | [12] 13.7 µM | [14] 4.22 µM | [15] 10 µM | [16] 15.6 µM | [17] 11 µM | [18] 11.3 µM

CN(C)c1ccc(/C=C2\N=C(NNc3ccccc3)NC2=O)cc1
inactive: [1] 27.3 µM | [3] 19 µM | [4] 16.9 µM | [5] 37.3 µM | [6] 19.1 µM | [7] 25.5 µM | [8] 26.8 µM | [9] 31 µM | [20] 13.7 µM | [10] 20 µM | [11] 22.9 µM | [12] 13.2 µM | [13] 27.8 µM | [14] 30 µM | [15] 28.8 µM | [16] 20.4 µM | [17] 18.7 µM | [18] 14.3 µM

N[C@H](C(=O)O)[C@@H]1CC(Br)=NO1
inactive: [1] > 100 µM | [2] > 100 µM | [3] 73.3 µM | [4] 57.5 µM | [19] > 100 µM | [5] 53.5 µM | [6] 42.2 µM | [7] 62.4 µM | [8] 48.6 µM | [9] > 100 µM | [20] > 100 µM | [10] > 100 µM | [11] 52.4 µM | [12] > 100 µM | [14] 88.9 µM | [15] 85.5 µM | [16] 87.5 µM | [17] > 100 µM | [18] > 100 µM

O=C1CCN(CCC(F)(F)C(F)(F)C(F)(F)C(F)(F)C(F)(F)C(F)(F)F)C(=S)N1CCC(F)(F)C(F)(F)C(F)(F)C(F)(F)C(F)(F)C(F)(F)F
inactive: [1] > 100 µM | [2] > 100 µM | [3] > 100 µM | [4] > 100 µM | [19] > 100 µM | [5] > 100 µM | [6] > 100 µM | [7] > 100 µM | [8] > 100 µM | [9] > 100 µM | [20] > 100 µM | [10] > 100 µM | [11] > 100 µM | [12] > 100 µM | [14] > 100 µM | [15] > 100 µM | [16] > 100 µM | [18] > 100 µM

N#Cc1ccc(/C=C2\Cc3ccccc3C2=O)cc1
inactive: [1] > 100 µM | [2] 56.9 µM | [3] 46.8 µM | [4] > 100 µM | [19] 67.6 µM | [5] > 100 µM | [6] > 100 µM | [7] > 100 µM | [8] > 100 µM | [9] 43.4 µM | [20] > 100 µM | [10] > 100 µM | [11] > 100 µM | [12] > 100 µM | [14] > 100 µM | [15] > 100 µM | [16] > 100 µM

Cc1cn(C2CC(SCCO)C(CO)O2)c(=O)[nH]c1=O (centres undefined)
inactive: [1] > 100 µM | [2] > 100 µM | [3] > 100 µM | [4] > 100 µM | [19] > 100 µM | [5] > 100 µM | [6] > 100 µM | [7] > 100 µM | [8] > 100 µM | [9] > 100 µM | [20] > 100 µM | [10] > 100 µM | [11] > 100 µM | [12] > 100 µM | [14] > 100 µM | [15] > 100 µM | [16] > 100 µM | [17] > 100 µM | [18] > 100 µM
